Species: Rattus norvegicus
Test: DrugMatrix - Regimen: Daily Repeat
Assay type: toxicity, organism-based, Sprague-Dawley
Design: regimen Daily Repeat, gender Male, age 6-8 weeks
Details: in vivo, po, route oral GAVAGE, vehicle .5 % CMC; for ABSOLUTE BASOPHIL / ABSOLUTE EOSINOPHIL / ABSOLUTE LYMPHOCYTE / ABSOLUTE MONOCYTE / ABSOLUTE SEGMENTED NEUTROPHIL / BASOPHIL / EOSINOPHIL / ERYTHROCYTE COUNT / HEMATOCRIT / HEMOGLOBIN / LEUKOCYTE COUNT / LYMPHOCYTE / MEAN CORPUSCULAR HEMOGLOBIN / MEAN CORPUSCULAR HEMOGLOBIN CONCENTRATION / MEAN CORPUSCULAR VOLUME / MONOCYTE / NEUTROPHIL / NUCLEATED RED BLOOD CELLS / PLATELET COUNT: tissue Blood; for ALANINE AMINOTRANSFERASE / ALBUMIN / ALKALINE PHOSPHATASE / ASPARTATE AMINOTRANSFERASE / BLOOD UREA NITROGEN / CARBON DIOXIDE / CHLORIDE / CHOLESTEROL / CREATINE PHOSPHOKINASE / CREATININE / GLUCOSE / LACTATE DEHYDROGENASE / LIPASE / PHOSPHORUS / POTASSIUM / SODIUM / TOTAL BILIRUBIN / TOTAL PROTEIN / URIC ACID: tissue Plasma
[1] = 500 mg/kg, 120 h, dose level Low, time 5 day
[2] = 1500 mg/kg, 72 h, dose level High, time 3 day
[3] = 1500 mg/kg, 120 h, dose level High, time 5 day

**Q.** What does the source list for `CC(C)(Sc1cc(C(C)(C)C)c(O)c(C(C)(C)C)c1)Sc1cc(C(C)(C)C)c(O)c(C(C)(C)C)c1` [PROBUCOL]?
**A.** ABSOLUTE BASOPHIL [1]: 0 CELLS/uL; ABSOLUTE EOSINOPHIL [1]: 211 CELLS/uL; ABSOLUTE LYMPHOCYTE [1]: 10866.33 CELLS/uL; ABSOLUTE MONOCYTE [1]: 0 CELLS/uL; ABSOLUTE SEGMENTED NEUTROPHIL [1]: 1022.67 CELLS/uL; BASOPHIL [1]: 0%; EOSINOPHIL [1]: 1.67%; ERYTHROCYTE COUNT [1]: 5.74 x10E6/uL; HEMATOCRIT [1]: 36.53%; HEMOGLOBIN [1]: 13.67 G/DL; LEUKOCYTE COUNT [1]: 12.1 x10E3/uL; LYMPHOCYTE [1]: 90%; MEAN CORPUSCULAR HEMOGLOBIN [1]: 23.87 pg; MEAN CORPUSCULAR HEMOGLOBIN CONCENTRATION [1]: 37.43 G/DL; MEAN CORPUSCULAR VOLUME [1]: 63.7 fL; MONOCYTE [1]: 0%; NEUTROPHIL [1]: 8.33%; NUCLEATED RED BLOOD CELLS [1]: 0 /100WBC; PLATELET COUNT [1]: 1159.33 x10E3/uL; ALANINE AMINOTRANSFERASE [1]: 45.67 u/L; ALBUMIN [1]: 4.33 G/DL; ALKALINE PHOSPHATASE [1]: 362 u/L; ASPARTATE AMINOTRANSFERASE [1]: 76.33 u/L; BLOOD UREA NITROGEN [1]: 15.33 mg/dL; CARBON DIOXIDE [1]: 25.67 mmol/L; CHLORIDE [1]: 102 MEQ/L; CHOLESTEROL [1]: 70.33 mg/dL; CREATINE PHOSPHOKINASE [1]: 180.67 u/L; CREATININE [1]: 0.2 mg/dL; GLUCOSE [1]: 163.67 mg/dL; LACTATE DEHYDROGENASE [1]: 162.67 u/L; LIPASE [1]: 9 u/L; PHOSPHORUS [1]: 11.63 mg/dL; POTASSIUM [1]: 6.21 MEQ/L; SODIUM [1]: 144 MEQ/L; TOTAL BILIRUBIN [1]: 0.2 mg/dL; TOTAL PROTEIN [1]: 6.1 G/DL; URIC ACID [1]: 1.83 mg/dL; ABSOLUTE BASOPHIL [2]: 0 CELLS/uL; ABSOLUTE EOSINOPHIL [2]: 183 CELLS/uL; ABSOLUTE LYMPHOCYTE [2]: 12835.33 CELLS/uL; ABSOLUTE MONOCYTE [2]: 38 CELLS/uL; ABSOLUTE SEGMENTED NEUTROPHIL [2]: 1443.67 CELLS/uL; BASOPHIL [2]: 0%; EOSINOPHIL [2]: 1.33%; ERYTHROCYTE COUNT [2]: 5.49 x10E6/uL; HEMATOCRIT [2]: 34.77%; HEMOGLOBIN [2]: 13.37 G/DL; LEUKOCYTE COUNT [2]: 14.5 x10E3/uL; LYMPHOCYTE [2]: 88.33%; MEAN CORPUSCULAR HEMOGLOBIN [2]: 24.37 pg; MEAN CORPUSCULAR HEMOGLOBIN CONCENTRATION [2]: 38.47 G/DL; MEAN CORPUSCULAR VOLUME [2]: 63.33 fL; MONOCYTE [2]: 0.33%; NEUTROPHIL [2]: 10%; NUCLEATED RED BLOOD CELLS [2]: 0 /100WBC; PLATELET COUNT [2]: 1374.67 x10E3/uL; ALANINE AMINOTRANSFERASE [2]: 49.33 u/L; ALBUMIN [2]: 4.2 G/DL; ALKALINE PHOSPHATASE [2]: 412 u/L; ASPARTATE AMINOTRANSFERASE [2]: 77.33 u/L; BLOOD UREA NITROGEN [2]: 14.67 mg/dL; CARBON DIOXIDE [2]: 27.33 mmol/L; CHLORIDE [2]: 100 MEQ/L; CHOLESTEROL [2]: 65.67 mg/dL; CREATINE PHOSPHOKINASE [2]: 249.33 u/L; CREATININE [2]: 0.19 mg/dL; GLUCOSE [2]: 153.67 mg/dL; LACTATE DEHYDROGENASE [2]: 144 u/L; LIPASE [2]: 9 u/L; PHOSPHORUS [2]: 12.87 mg/dL; POTASSIUM [2]: 7.14 MEQ/L; SODIUM [2]: 143.67 MEQ/L; TOTAL BILIRUBIN [2]: 0.17 mg/dL; TOTAL PROTEIN [2]: 5.83 G/DL; URIC ACID [2]: 1.67 mg/dL; ABSOLUTE BASOPHIL [3]: 0 CELLS/uL; ABSOLUTE EOSINOPHIL [3]: 76.67 CELLS/uL; ABSOLUTE LYMPHOCYTE [3]: 11157.33 CELLS/uL; ABSOLUTE MONOCYTE [3]: 39 CELLS/uL; ABSOLUTE SEGMENTED NEUTROPHIL [3]: 1027 CELLS/uL; BASOPHIL [3]: 0%; EOSINOPHIL [3]: 0.67%; ERYTHROCYTE COUNT [3]: 5.53 x10E6/uL; HEMATOCRIT [3]: 34.87%; HEMOGLOBIN [3]: 13.07 G/DL; LEUKOCYTE COUNT [3]: 12.3 x10E3/uL; LYMPHOCYTE [3]: 90.67%; MEAN CORPUSCULAR HEMOGLOBIN [3]: 23.63 pg; MEAN CORPUSCULAR HEMOGLOBIN CONCENTRATION [3]: 37.5 G/DL; MEAN CORPUSCULAR VOLUME [3]: 63.03 fL; MONOCYTE [3]: 0.33%; NEUTROPHIL [3]: 8.33%; NUCLEATED RED BLOOD CELLS [3]: 0 /100WBC; PLATELET COUNT [3]: 1307 x10E3/uL; ALANINE AMINOTRANSFERASE [3]: 47.67 u/L; ALBUMIN [3]: 4.33 G/DL; ALKALINE PHOSPHATASE [3]: 423.67 u/L; ASPARTATE AMINOTRANSFERASE [3]: 74 u/L; BLOOD UREA NITROGEN [3]: 15.33 mg/dL; CARBON DIOXIDE [3]: 26.33 mmol/L; CHLORIDE [3]: 102.33 MEQ/L; CHOLESTEROL [3]: 63 mg/dL; CREATINE PHOSPHOKINASE [3]: 227.67 u/L; CREATININE [3]: 0.2 mg/dL; GLUCOSE [3]: 158.67 mg/dL; LACTATE DEHYDROGENASE [3]: 174.33 u/L; LIPASE [3]: 8.33 u/L; PHOSPHORUS [3]: 12.1 mg/dL; POTASSIUM [3]: 6.79 MEQ/L; SODIUM [3]: 145.27 MEQ/L; TOTAL BILIRUBIN [3]: 0.2 mg/dL; TOTAL PROTEIN [3]: 6.13 G/DL; URIC ACID [3]: 1.63 mg/dL

Reference: ChEMBL document CHEMBL3885881, “DrugMatrix”
